Results published in patent publication US20030191342A1, “Process for the production of crystals of a benzoic acid derivative” (priority 2000, published 2003).

Key:
[1] = Grain size distribution by laser-type grain size analyzer (Microtrac FRA); assay type: physicochemical; conditions: crystals dispersed in aqueous Soprophor FL; for Average grain size 10%: 10% point of grain size distribution; for Average grain size 50%: 50% point of grain size distribution; for Average grain size 90%: 90% point of grain size distribution
Protocol: Grain size distributions of the crystals obtained in Example 1 and Comparative Example 1 were measured. A laser-type grain size analyzer (Microtrac FRA) was used. A 1% aqueous solution of Soprophor FL (3 ml, Rhone-Poulenc) was added with water (15 ml), and an appropriate amount of the crystals obtained in Example 1 or Comparative Example 1 were dispersed in the mixture to obtain a sample dispersion.

[2] = background art statement, no method given; cited from earlier work

Row | SMILES | Average grain size 10% [1] [μm] | Average grain size 50% [1] [μm] | Average grain size 90% [1] [μm] | stability of crystalline form against physical impact [2] | stability against heat, temperature, light and the like [2]
1 | CC1(C)CCC(C)(C)c2cc(NC(=O)c3ccc(C(=O)O)cc3)ccc21 [Methanol/water, 4-[(5,6,7,8-Tetrahydro-5,5,8,8-tetramethyl-2-naphthalenyl)carbamoyl]benzoic acid, reference compound] | 42.74 | 96.29 | 268.75 |  | 
2 | CC1(C)CCC(C)(C)c2cc(NC(=O)c3ccc(C(=O)O)cc3)ccc21 [crystal that melts at 193° C., 4-[(5,6,7,8-tetrahydro-5,5,8,8-tetramethyl-2-naphthalenyl)carbamoyl]benzoic acid, reference compound] |  |  |  | crystalline form readily occurs transition by physical impact | 
3 | CC1(C)CCC(C)(C)c2cc(NC(=O)c3ccc(C(=O)O)cc3)ccc21 [crystal that melts at 233° C., 4-[(5,6,7,8-tetrahydro-5,5,8,8-tetramethyl-2-naphthalenyl)carbamoyl]benzoic acid] |  |  |  | high stability | high stability
4 | CC1(C)CCC(C)(C)c2cc(NC(=O)c3ccc(C(=O)O)cc3)ccc21 [Ethanol/water, 4-[(5,6,7,8-Tetrahydro-5,5,8,8-tetramethyl-2-naphthalenyl)carbamoyl]benzoic acid] | 16.38 | 39.74 | 86.92 |  | 
